One data set concerns biosimilar AVASTIN®. Briefly: Viscosity of aqueous solutions of biosimilar AVASTIN® with viscosity-lowering agents. In kind it is physicochemical. The conditions noted are these: for Viscosity: 200 ± 5 mg/mL mAb, pH 7.0, 25° C., C & P viscometer. As to the method: (§1) (unless otherwise indicated).
The protein was formulated to contain either 0.25 M phosphate buffer or 0.25 M CSAL.
Subsequently, the appropriate amount of viscosity-lowering agent was added to result in a final viscosity-lowering agent concentration of 0.15-0.35 M upon reconstitution.
The viscosity-lowering agent(s) were added in an amount sufficient to give concentration upon reconstitution as specified below. In cases of combinations of agents, the concentration of each component is 0.15 M. The protein solutions were then freeze-dried.

Data set [1] relates to REMICADE®. Put plainly: Viscosity of aqueous solutions of […]® with viscosity-lowering agents. In kind it is physicochemical. The conditions noted are these: 0.25M agent, 25° C., pH 7.0. As to the method:
as §1
An extrapolated zero-shear viscosity was determined from a plot of absolute viscosity versus shear rate.
(§2) Following reconstitution, the viscosity of each solution was measured using the microfluidic viscometer as described in previous examples. The solutions were then back-loaded into 1 mL BD insulin syringes with 27, 29, or 31 gauge fixed needles. The force required to extrude the concentrated […]® solutions was then measured using an Instron at a rate of displacement equivalent to a fluid flow rate of 3 mL/min. The expelled solution was collected from the syringe and analyzed by size-exclusion chromatography.

Another data set deals with HERCEPTIN®. Briefly: Viscosity of aqueous solutions of HERCEPTIN® with viscosity-lowering agents. To be noted: 0.25M salt, 25° C., pH 7.0. In kind it is physicochemical.
For another data set, the system named is TYSABRI®. Briefly: Viscosity of aqueous solutions of TYSABRI® with viscosity-lowering agents. In kind it is physicochemical. The conditions noted are these: 0.25M agent, 25° C., pH 7.0.
The test system of a further data set is VECTIBIX®. Put plainly: Viscosity of aqueous solutions of VECTIBIX® with viscosity-lowering agents. To be noted: 0.25M agent, 25° C., pH 7.0. In kind it is physicochemical.
Source text: as §1

The next data set relates to biosimilar ERBITUX®. Put plainly: Viscosity of aqueous solutions of biosimilar ERBITUX® with viscosity-lowering agents. The conditions noted are these: 222 ± 5 mg/mL mAb, pH 7.0, 0.25M agent, 25° C.
A further data set relates to biosimilar RITUXAN®. Put plainly: Viscosity of aqueous solutions of biosimilar RITUXAN® with viscosity-lowering agents.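 Further: absolute viscosity of aqueous antibody solutions determined by microfluidic viscometry (mVROC chip, 50 micron channel) at several flow rates after 5 min equilibration, mean of at least three readings.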
For a further data set, the system named is antigen. Briefly: Antigen binding, […]®-specific ELISA assay. The conditions noted are these: 227 mg/mL, pH 7, 0.25M CSAA, storage at 4° C. How it is done: Biophysical properties of solutions of […]® formulated with 0.25 M CSAA were assessed over 90 days. Samples of […]® formulated with 0.25 M CSAA were prepared as described in Example 1 above. […] (Table 20). Additionally, antigen binding of this processed […]® protein was measured with a […]®-specific ELISA assay and no decrease in binding was seen between days 0 and […] (Table 20).
Background: ELISA stands for enzyme-linked immunosorbent assay.

Data set [2] deals with REMICADE®. Briefly: Monomer content of […]® solutions by size exclusion chromatography. In kind it is physicochemical. The conditions noted are these: lyophilized powder (cake containing CSAA) stored at 4° C.; reconstituted after 75 days. In general terms: SEC sorts molecules by how far they enter the pores of the column.
The next data set concerns ARZERRA®. Briefly: Viscosity of aqueous solutions of ARZERRA® with viscosity-lowering agents. In kind it is physicochemical. The conditions noted are these: 0.25M agent, 25° C., pH 7.0.
Source text: as §1

For data set [3], the system named is REMICADE®. Briefly: Monomer content of […]® solutions by size exclusion chromatography. In kind it is physicochemical. The conditions noted are these: 0.25M agent. As to the method:
Biophysical properties of solutions of […]® formulated with 0.25 M CSAA were assessed over 90 days. Samples of […]® formulated with 0.25 M CSAA were prepared as described in Example 1 above.
as §2

The subject of data set [4] is REMICADE®. Briefly: Syringe extrusion force of concentrated […]® solutions (Instron). In kind it is physicochemical. To be noted: 1 mL BD insulin syringe, 3 mL/min, REMICADE 224-230 mg/mL, 0.25M agent. As to the method:
as §2

We go through three compounds from US9925263B2, “Liquid pharmaceutical formulations for injection comprising procaine and uses thereof” (EAGLE BIOLOGICS, INC., priority 2013, dated 2018).

Consider `Cl.N=C(N)NCCC[C@H](N)C(=O)O` [Arginine•HCl, arginine HCl, reference compound], for which the Viscosity is reported as 83.2 ± 2.8 cP in the data set on biosimilar AVASTIN® ([Salt] 0.25 M of anion); 71.8 ± 2.2 cP in the data set with biosimilar AVASTIN® ([Salt] 0.3 M of anion); 110 ± 1 cP with REMICADE® [1] (166 ± 4 mg/mL REMICADE); 486 ± 34 cP with REMICADE® [1] (222 ± 6 mg/mL REMICADE); 44.8 ± 1.1 cP in the data set on HERCEPTIN® (216 ± 0 mg/mL HERCEPTIN); 116 ± 24 cP in the data set on HERCEPTIN® (254 ± 3 mg/mL HERCEPTIN). Also, the Viscosity in the data set on HERCEPTIN® (270 ± 6 mg/mL HERCEPTIN) came out at 179 ± 17 cP; in the data set with TYSABRI® (230 ± 2 mg/mL TYSABRI) it was 37.0 ± 0.1 cP; in the data set on TYSABRI® (237 ± 4 mg/mL TYSABRI), 52.3 ± 4.5 cP; with TYSABRI® (276 ± 8 mg/mL TYSABRI), 97.2 ± 5.7 cP; with VECTIBIX® (233 ± 4 mg/mL VECTIBIX) it was 24.7 ± 1.3 cP; in the data set on VECTIBIX® (252 ± 3 mg/mL VECTIBIX), 36.2 ± 1.0 cP. The Viscosity was 45.3 ± 0.5 cP in the data set on biosimilar ERBITUX®; 86.8 ± 1.8 with biosimilar RITUXAN® (220 mg/mL RITUXAN (footnote *), 0.45M agent, 25° C., pH 7.0); 46.9 ± 0.8 in the data set on biosimilar RITUXAN® (202 ± 2 mg/mL RITUXAN, 0.45M agent, 25° C., pH 7.0). In addition, in the data set on biosimilar ERBITUX® (vs phosphate buffer), the “Fold Reduction” value was 24.9 fold.
On to “REMICADE ®: infliximab, mAb against TNF-α; here concentrated solution formulated with 0.25 M CSAA”, for which the “% binding (ELISA)” value with antigen (day 0) is recorded as 105 ± 14%; in the data set with antigen (day 30), 98 ± 12%; in the data set with antigen (day 100), 101 ± 5%. For the same compound, the “% Monomer (SEC)” value in the data set with REMICADE® [2] is given as 98.9 ± 0.1%.
As to “camphorsulfonic acid 1-(3-aminopropyl)-2-methyl-1H-imidazole [CSAAPMI]”, the Viscosity reduction entry in the data set on biosimilar AVASTIN® (~230 mg/mL mAb, vs PB, Table 12) was “approximately 5 fold”. Further, the Viscosity worked out at 53.6 ± 0.6 cP in the data set with ARZERRA® (245 ± 4 mg/mL ARZERRA); 98.9 ± 0.7 cP in the data set on ARZERRA® (274 ± 10 mg/mL ARZERRA); 38.7 ± 0.7 in the data set on biosimilar RITUXAN® (202 ± 2 mg/mL RITUXAN, 0.25M agent, 25° C., pH 7.0); 78.6 ± 2.0 in the data set with biosimilar RITUXAN® (pH 7). Besides, the “% Monomer” value turned out to be 99.1 ± 0.0% in the data set with REMICADE® [3] (expelled through 27 gauge needle, REMICADE 224-230 mg/mL (per agent)); 99.0 ± 0.0% in the data set with REMICADE® [3] (expelled through 29 gauge needle, REMICADE 224-230 mg/mL (per agent)); 99.0 ± 0.0% with REMICADE® [3] (expelled through 31 gauge needle, REMICADE 224-230 mg/mL (per agent)); 99.2 ± 0.32% in the data set on REMICADE® [3] (pre-syringe, REMICADE 220-230 mg/mL (per agent)). In addition, the “Syringe Force” value with REMICADE® [4] (27 gauge needle) was 21.9 N; in the data set with REMICADE® [4] (29 gauge needle), 30.4 N; with REMICADE® [4] (31 gauge needle) it was 38.4 N.
